Key:
[1] = molecular target: T1, Cbl-b (Homo sapiens, UniProt Q13191); assay: Cbl-b Degradation Method B (Nano-Glo HiBiT lytic detection); type: cell-based; conditions: Cbl-b-HiBit KI Jurkat Cells, incubated at least 6-24 hours; for DC50: half maximal degradation, read-out: Cbl-b Degredation Method B IC50; for Dmax: read-out: Cbl-b Degredation Method B Dmax (%)
T1 construct: Cbl-b-HiBit KI Jurkat Cells were purchased from Promega; host or cells: Cbl-b-HiBiT knock-in Jurkat cells
How it was run: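 An 11-point, 3-fold compound dilution was applied for 6-24 hours to Jurkat cells carrying HiBiT-tagged endogenous Cbl-b. Lytic HiBiT luminescence quantified residual protein. Outputs are DC50 and Dmax relative to DMSO control.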

[2] = molecular target: T1, Cbl-b; assay: Cbl-b Degradation Method A (FACS, anti-Cbl-b antibody staining); type: cell-based; conditions: for DC50: half maximal degradation, read-out: Cbl-b Degredation Method A IC50; for Dmax: Jurkat, read-out: Cbl-b Degredation Method A Dmax (%)
How it was run: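 Readout is flow cytometry of fixed, permeabilized cells immunostained for Cbl-b (primary 1:200, AF488 secondary). Cells were Cbl-b-HiBit knock-in Jurkat, exposed to compound ≥20 h at 37 °C; half-maximal degradation concentration (DC50) and maximal degradation (Dmax) calculated relative to control.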

[3] = Cbl-b-HiBit KI Jurkat Cells, incubated at least 20 hours
[4] = Cbl-b-HiBit KI Jurkat Cells, incubated at least 20 hours, maximum degradation observed

T1 sequence (Q13191 whole entry): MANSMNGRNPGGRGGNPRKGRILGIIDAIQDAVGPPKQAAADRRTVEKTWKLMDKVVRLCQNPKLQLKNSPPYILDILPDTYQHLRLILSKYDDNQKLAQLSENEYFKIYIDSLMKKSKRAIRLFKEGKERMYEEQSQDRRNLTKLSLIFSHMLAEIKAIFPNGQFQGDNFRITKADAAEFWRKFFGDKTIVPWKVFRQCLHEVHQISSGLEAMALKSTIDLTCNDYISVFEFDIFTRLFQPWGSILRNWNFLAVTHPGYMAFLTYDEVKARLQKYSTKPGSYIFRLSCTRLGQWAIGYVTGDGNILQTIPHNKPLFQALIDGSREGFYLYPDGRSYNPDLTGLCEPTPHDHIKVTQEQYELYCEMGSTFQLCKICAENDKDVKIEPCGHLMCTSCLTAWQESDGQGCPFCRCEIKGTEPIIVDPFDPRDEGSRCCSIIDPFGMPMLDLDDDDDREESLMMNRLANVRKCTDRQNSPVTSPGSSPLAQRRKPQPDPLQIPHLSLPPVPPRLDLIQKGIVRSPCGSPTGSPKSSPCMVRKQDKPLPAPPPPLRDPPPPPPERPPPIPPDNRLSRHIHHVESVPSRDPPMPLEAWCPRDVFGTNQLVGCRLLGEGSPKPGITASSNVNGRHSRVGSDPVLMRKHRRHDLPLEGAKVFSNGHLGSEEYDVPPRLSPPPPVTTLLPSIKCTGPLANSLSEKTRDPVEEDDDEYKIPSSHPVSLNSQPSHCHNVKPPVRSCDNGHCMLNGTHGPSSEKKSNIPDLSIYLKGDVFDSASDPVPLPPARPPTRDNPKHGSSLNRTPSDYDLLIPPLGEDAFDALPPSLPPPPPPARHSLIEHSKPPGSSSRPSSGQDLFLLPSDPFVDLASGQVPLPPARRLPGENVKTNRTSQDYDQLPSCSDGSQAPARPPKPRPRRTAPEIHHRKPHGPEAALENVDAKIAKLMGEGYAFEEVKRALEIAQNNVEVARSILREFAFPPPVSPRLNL

DC50 [1] [nM]	Dmax ([1]; maximum degradation observed) [%]	DC50 [2, 3] [nM]	Dmax [2, 4] [%]	Cbl-b Degredation Method B Dmax (%) ([1]; maximum degradation observed)	Structure (SMILES)	Dmax [2] [%]
< 5	35 to 70	< 5	> 70	–	COc1c(N2CCC(O[C@H]3CC[C@H](CN4CCN(Cc5cc6c(c(C(F)(F)F)c5)CN(c5cccc(C7(Cc8nncn8C)COC7)c5)C6=O)CC4)CC3)CC2)ccc2c1CN(C1CCC(=O)NC1=O)C2=O (stereo partly shown) [Example 193, 3-[4-methoxy-1-oxo-5-(4-{[(1r,4r)-4-[(4-{[2-(3-{3-[(4-methyl-4H-1,2,4-triazol-3-yl)methyl]oxetan-3-yl}phenyl)-3-oxo-7-(trifluoromethyl)-2,3-dihydro-1H-isoindol-5-yl]methyl}piperazin-1-yl)methyl]cyclohexyl]oxy}piperidin-1-yl)-2,3-dihydro-1H-isoindol-2-yl]piperidine-2,6-dione]	–
< 5	35 to 70	< 5	> 70	–	Cn1cnnc1[C@]1(c2cccc(N3Cc4c(cc(CN5CCC[C@H](CN6CCN(C[C@H]7CC[C@@H](OC8CCN(c9ccc%10c(c9F)CN(C9CCC(=O)NC9=O)C%10=O)CC8)CC7)CC6)C5)cc4C(F)(F)F)C3=O)c2)C[C@H](C)C1 (stereo partly drawn) [Example 159, 3-[4-fluoro-1-oxo-5-(4-{[(1r,4r)-4-[(4-{[(3S)-1-[(3-oxo-2-{3-[(1s,3r)-3-methyl-1-(4-methyl-4H-1,2,4-triazol-3-yl)cyclobutyl]phenyl}-7-(trifluoromethyl)-2,3-dihydro-1H-isoindol-5-yl)methyl]piperidin-3-yl]methyl}piperazin-1-yl)methyl]cyclohexyl]oxy}piperidin-1-yl)-2,3-dihydro-1H-isoindol-2-yl]piperidine-2,6-dione]	–
> 500	–	50 to 500	> 70	–	Cn1cnnc1CC1(c2cccc(N3Cc4c(cc(CN5CCC(N6CC7(CN(c8ccc9c(c8)C(=O)N(C8CCC(=O)NC8=O)C9=O)C7)C6)CC5)cc4C(F)(F)F)C3=O)c2)COC1 (stereo not shown) [Example 106, 2-(2,6-dioxopiperidin-3-yl)-5-[6-(1-{[2-(3-{3-[(4-methyl-4H-1,2,4-triazol-3-yl)methyl]oxetan-3-yl}phenyl)-3-oxo-7-(trifluoromethyl)-2,3-dihydro-1H-isoindol-5-yl]methyl}piperidin-4-yl)-2,6-diazaspiro[3.3]heptan-2-yl]-2,3-dihydro-1H-isoindole-1,3-dione]	–
> 500	–	> 500	< 35	–	Cn1cnnc1CC1(c2cccc(N3Cc4c(cc(CN5CCC(N6CCC7(CCN(c8ccc9c(c8)C(=O)N(C8CCC(=O)NC8=O)C9=O)CC7)CC6)CC5)cc4C(F)(F)F)C3=O)c2)COC1 (stereo not shown) [Example 100, 2-(2,6-dioxopiperidin-3-yl)-5-[9-(1-{[2-(3-{3-[(4-methyl-4H-1,2,4-triazol-3-yl)methyl]oxetan-3-yl}phenyl)-3-oxo-7-(trifluoromethyl)-2,3-dihydro-1H-isoindol-5-yl]methyl}piperidin-4-yl)-3,9-diazaspiro[5.5]undecan-3-yl]-2,3-dihydro-1H-isoindole-1,3-dione]	–
< 5	35 to 70	< 5	35 to 70	–	Cn1cnnc1CC1(c2cccc(N3Cc4c(cc(N5CC6(CCN(CC7CCN(c8ccc9c(c8)CN(C8CCC(=O)NC8=O)C9=O)CC7)CC6)C5)cc4C(F)(F)F)C3=O)c2)COC1 (stereo not shown) [Example 117, 3-{5-[4-({2-[2-(3-{3-[(4-methyl-4H-1,2,4-triazol-3-yl)methyl]oxetan-3-yl}phenyl)-3-oxo-7-(trifluoromethyl)-2,3-dihydro-1H-isoindol-5-yl]-2,7-diazaspiro[3.5]nonan-7-yl}methyl)piperidin-1-yl]-1-oxo-2,3-dihydro-1H-isoindol-2-yl}piperidine-2,6-dione]	–
< 5	–	50 to 500	35 to 70	C (C ≤ 35)	C[C@@H]1c2nc(N3CCC(O[C@H]4CC[C@H](CN5CCN(Cc6cc7c(c(C(F)(F)F)c6)CN(c6cccc(C8(Cc9nncn9C)CC(C#N)C8)c6)C7=O)CC5(C)C)CC4)CC3)ccc2C(=O)N1C1CCC(=O)NC1=O (single isomer, unassigned) [Example 311, (1r***,3r***)-3-(3-{6-[(3,3-dimethyl-4-{[(1r**,4r**)-4-({1-[(7R*)-6-(2,6-dioxopiperidin-3-yl)-7-methyl-5-oxo-5H,6H,7H-pyrrolo[3,4-b]pyridin-2-yl]piperidin-4-yl}oxy)cyclohexyl]methyl}piperazin-1-yl)methyl]-1-oxo-4-(trifluoromethyl)-2,3-dihydro-1H-isoindol-2-yl}phenyl)-3-[(4-methyl-4H-1,2,4-triazol-3-yl)methyl]cyclobutane-1-carbonitrile]	–
> 500	–	50 to 500	–	–	CC1CC(N2CCC(CC3CCN(c4ccc5c(c4)C(=O)N(C4CCC(=O)NC4=O)C5=O)CC3)CC2)CN(Cc2cc3c(c(C(F)(F)F)c2)CN(c2cccc(C4(Cc5nncn5C)COC4)c2)C3=O)C1 (stereo not shown) [Example 95, 2-(2,6-dioxopiperidin-3-yl)-5-{4-[(5′-methyl-1′-{[2-(3-{3-[(4-methyl-4H-1,2,4-triazol-3-yl)methyl]oxetan-3-yl}phenyl)-3-oxo-7-(trifluoromethyl)-2,3-dihydro-1H-isoindol-5-yl]methyl}-[1,3′-bipiperidin]-4-yl)methyl]piperidin-1-yl}-2,3-dihydro-1H-isoindole-1,3-dione]	–
< 5	35 to 70	5 to 50	> 70	–	CC1c2nc(N3CCC(O[C@H]4CC[C@H](CN5CCC6(CC5)CN(c5cc7c(c(C(F)(F)F)c5)CN(c5cccc([C@]8(Cc9nncn9C)C[C@@H](C#N)C8)c5)C7=O)C6)CC4)CC3)ccc2C(=O)N1C1CCC(=O)NC1=O (stereo partly shown) [Example 175, (1r,3r)-3-[(4-methyl-4H-1,2,4-triazol-3-yl)methyl]-3-{3-[1-oxo-6-(7-{[(1r,4r)-4-({1-[6-(2,6-dioxopiperidin-3-yl)-7-methyl-5-oxo-5H,6H,7H-pyrrolo[3,4-b]pyridin-2-yl]piperidin-4-yl}oxy)cyclohexyl]methyl}-2,7-diazaspiro[3.5]nonan-2-yl)-4-(trifluoromethyl)-2,3-dihydro-1H-isoindol-2-yl]phenyl}cyclobutane-1-carbonitrile]	–
> 500	–	5 to 50	–	–	Cn1cnnc1CC1(c2cccc(N3Cc4c(cc(N5CC(C6CN(c7ccc8c(c7)C(=O)N(C7CCC(=O)NC7=O)C8=O)C6)C5)cc4C(F)(F)F)C3=O)c2)COC1 (stereo not shown) [Example 121, 2-(2,6-dioxopiperidin-3-yl)-5-{1′-[2-(3-{3-[(4-methyl-4H-1,2,4-triazol-3-yl)methyl]oxetan-3-yl}phenyl)-3-oxo-7-(trifluoromethyl)-2,3-dihydro-1H-isoindol-5-yl]-[3,3′-biazetidin]-1-yl}-2,3-dihydro-1H-isoindole-1,3-dione]	–
< 5	35 to 70	5 to 50	35 to 70	–	Cn1cnnc1CC1(c2cccc(N3Cc4c(cc(CN5CCN(C[C@H]6CC[C@H](OC7CCN(c8ccc9c(n8)CN(C8CCC(=O)NC8=O)C9=O)CC7)CC6)CC5)cc4C(F)(F)F)C3=O)c2)COC1 (stereo partly shown) [Example 112, 3-[5-oxo-2-(4-{[(1r,4r)-4-[(4-{[2-(3-{3-[(4-methyl-4H-1,2,4-triazol-3-yl)methyl]oxetan-3-yl}phenyl)-3-oxo-7-(trifluoromethyl)-2,3-dihydro-1H-isoindol-5-yl]methyl}piperazin-1-yl)methyl]cyclohexyl]oxy}piperidin-1-yl)-5H,6H,7H-pyrrolo[3,4-b]pyridin-6-yl]piperidine-2,6-dione]	–
> 500	–	> 500	–	–	Cn1cnnc1CC1(c2cccc(N3Cc4c(cc(N5CC6(CCN(c7ccc8c(c7)C(=O)N(C7CCC(=O)NC7=O)C8=O)C6)C5)cc4C(F)(F)F)C3=O)c2)COC1 (stereo not shown) [Example 126, 2-(2,6-dioxopiperidin-3-yl)-5-{2-[2-(3-{3-[(4-methyl-4H-1,2,4-triazol-3-yl)methyl]oxetan-3-yl}phenyl)-3-oxo-7-(trifluoromethyl)-2,3-dihydro-1H-isoindol-5-yl]-2,6-diazaspiro[3.4]octan-6-yl}-2,3-dihydro-1H-isoindole-1,3-dione]	–

Structure (SMILES)	DC50 [1] [nM]	Dmax ([1]; maximum degradation observed) [%]	DC50 [2, 3] [nM]	Dmax [2, 4] [%]	Cbl-b Degredation Method B Dmax (%) ([1]; maximum degradation observed)	Dmax [2] [%]
Cn1cnnc1CC1(c2cccc(N3Cc4c(cc(CN5CCC[C@H](CN6CCN(C[C@H]7CC[C@H](OC8CCN(c9ccc%10c(c9F)CN(C9CCC(=O)NC9=O)C%10=O)CC8)CC7)CC6(C)C)C5)cc4C(F)(F)F)C3=O)c2)COC1 (stereo partly drawn) [Example 148, 3-[5-[4-[4-[[3,3-dimethyl-4-[[(3S)-1-[[2-[3-[3-[(4-methyl-1,2,4-triazol-3-yl)methyl]oxetan-3-yl]phenyl]-3-oxo-7-(trifluoromethyl)isoindolin-5-yl]methyl]-3-piperidyl]methyl]piperazin-1-yl]methyl]cyclohexoxy]-1-piperidyl]-4-fluoro-1-oxo-isoindolin-2-yl]piperidine-2,6-dione]	< 5	> 70	< 5	–	–	> 70

— US20260184710A1, “CASITAS B-LINEAGE LYMPHOMA PROTOONCOGENE B (CBL-B) DEGRADING COMPOUNDS AND ASSOCIATED METHODS OF USE” (Arvinas Operations, Inc., priority 2022, published 2026)
